Test results as given in paper PMC8041284, “Tunable Methacrylamides for Covalent Ligand Directed Release Chemistry” (Journal of the American Chemical Society, 2021).
Read-outs that look alike come from different tables or passages of the source.

Target: BTK (Homo sapiens, UniProt Q06187)
Assay: biochemical
[1] = read-out: BTK inhibition (%), 0.75 uM BTK, […] probe 3l, 15 min preincubation

BTK, sequence (Q06187 402-655 limits assumed): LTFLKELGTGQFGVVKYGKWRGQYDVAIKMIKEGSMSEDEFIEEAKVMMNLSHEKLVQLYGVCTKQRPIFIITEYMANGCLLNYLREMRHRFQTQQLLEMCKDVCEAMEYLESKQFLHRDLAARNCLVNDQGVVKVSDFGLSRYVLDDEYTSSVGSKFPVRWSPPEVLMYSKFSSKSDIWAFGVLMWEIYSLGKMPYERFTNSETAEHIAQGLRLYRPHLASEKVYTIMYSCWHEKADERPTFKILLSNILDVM

Structure (SMILES)	inhibition at 10 µM [1] [%]	inhibition at 10 µM (read-out: BTK inhibition (%)) [%]
CC(=O)O[C@]1(C(C)=O)CC[C@H]2[C@@H]3C=C(C)C4=CC(=O)CC[C@]4(C)[C@H]3CC[C@@]21C [PCM-0214613]	-4.8	–
COc1cc([C@H]2OC[C@H]3[C@@H]2CO[C@@H]3c2ccc(O[C@@H]3O[C@H](CO)[C@@H](O)[C@H](O)[C@H]3O)c(OC)c2)ccc1O[C@@H]1O[C@H](CO)[C@@H](O)[C@H](O)[C@H]1O [PCM-0216471]	-6.9	–
O=c1[nH]c(=O)n([C@H]2C[C@H](O)[C@@H](CO)O2)cc1Br [PCM-0215515]	3.9	–
C[C@@H]1COCCN1c1cc(C2(S(C)(=O)=O)CC2)nc(-c2cccc3[nH]ccc23)n1 [PCM-0095779]	-7.6	–
Cc1cc(O)c2c(c1)C(=O)c1cc(O)cc(O)c1C2=O [PCM-0065315]	69.3	–
Cn1cc(-c2[nH]c3cc(NC(=O)[C@H](N)C4CCCCC4)cc4c3c2C=NNC4=O)cn1 [PCM-0095372]	111	–
COc1cc2c(cc1OC)[C@H]1C[C@@H](OC(=O)[C@@H](N)C(C)C)[C@H](CC(C)C)CN1CC2 [PCM-0216567]	-27	–
O=C(O)c1cn(C2CC2)c2cc(Cl)c(F)cc2c1=O [PCM-0216105]	7.7	–
O=C(/C=C/c1ccc(O)c(O)c1)O[C@@H]1C[C@](O)(C(=O)O)C[C@@H](O)[C@H]1O [PCM-0087069]	-10.1	–
CC(C)n1c(=O)n(C)c2cnc3cc(F)c(-c4ccc(OCCCN5CCCCC5)nc4)cc3c21 [PCM-0216091]	-13.9	–
COc1ccc(-c2oc3c(CC=C(C)C)c(O[C@@H]4C[C@H](CO)[C@@H](O)[C@H](O)[C@H]4O)cc(O)c3c(=O)c2O[C@@H]2O[C@@H](C)[C@H](O)[C@@H](O)[C@H]2O[C@@H]2O[C@H](CO)[C@@H](O)[C@H](O)[C@H]2O)cc1 [PCM-0216510]	-15.4	–
CCc1c(O)cc(O)c(C(=O)c2ccc(OCCN3CCOCC3)c(OC)c2)c1CC(=O)N(CCOC)CCOC [PCM-0095381]	2.3	–
Nc1ncnc2c1ncn2[C@@H]1O[C@H](COP(=O)(O)OP(=O)(O)O)[C@@H](O)[C@H]1O [PCM-0216291]	3.1	–
NC(N)=NCCC[C@H](N)C(=O)O [PCM-0215193]	2.6	–
C[C@H](NC(=O)Cc1cc(F)cc(F)c1)C(=O)N[C@@H]1C(=O)N(C)c2ccccc2-c2ccccc21 [PCM-0095414]	4.8	–
C=C(C(=O)O)[C@@H]1CC[C@@H](C)[C@@H]2CCC(C)=C[C@@H]21 [PCM-0216417]	0	–
CC(C)=CCC[C@H](C(=O)O)[C@@H]1CC[C@]2(C)C3=C(CC[C@@]12C)[C@@]1(C)CCC(=O)C(C)(C)[C@@H]1CC3 [PCM-0216312]	–	-6.2
CO[C@H]1C[C@H](O[C@H]2CC[C@]3(C)[C@H]4CC[C@]5(C)[C@@H](C6=CC(=O)OC6)CC[C@]5(O)[C@@H]4CC[C@]3(O)C2)O[C@H](C)[C@H]1O[C@@H]1O[C@H](CO)[C@@H](O)[C@H](O)[C@H]1O [PCM-0216449]	–	11.6
CC(=O)c1ccc(NN=C(C(N)=O)C2=NC(C)(C)Cc3ccccc32)cc1 [PCM-0215663]	13.1	–
O=C(O)CCc1ccc(O)cc1O [PCM-0214987]	-10.9	–
Cc1cccc(-c2nn3c(c2-c2ccnc4ccc(C(N)=O)cc24)CCC3)n1 [PCM-0095269]	11.7	–
Nc1nc(=S)c2ncn([C@H]3C[C@H](O)[C@@H](CO)O3)c2[nH]1 [PCM-0215558]	-7.7	–
Cc1cnc(NC(=O)C2=C(O)c3ccccc3S(=O)(=O)N2C)s1 [PCM-0086060]	-6.2	–

Structure (SMILES)	inhibition at 10 µM [1] [%]	inhibition at 10 µM (read-out: BTK inhibition (%)) [%]
C/C=C(/C)C(=O)OC(=O)/C(C)=C\C [PCM-0215943]	-8.6	–
O=C(O)c1cn(-c2ccc(F)cc2)c2cc(N3CCNCC3)c(F)cc2c1=O [PCM-0086286]	-3.4	–
Nc1ccc(-c2ccc3ncc4ccc(=O)n(-c5cccc(C(F)(F)F)c5)c4c3c2)cn1 [PCM-0095430]	9.7	–
O=[N+]([O-])c1ccc(S(=O)(=O)N2CCN(c3ccnc4cc(Cl)ccc34)CC2)c([N+](=O)[O-])c1 [PCM-0215531]	-12.4	–
COc1ccc(C2(C#N)CCC(C(=O)O)CC2)cc1OC1CCCC1 (stereo not shown) [PCM-0095129]	-29.6	–
Cn1cc(-c2ccc3nnc(C(F)(F)c4ccc5ncccc5c4)n3n2)cn1 [PCM-0094910]	-1.4	–
COCCOC(=O)C1=C(C)NC(C)=C(C(=O)OC/C=C/c2ccccc2)C1c1cccc([N+](=O)[O-])c1 (stereo not shown) [PCM-0065102]	59.9	–
COc1cccc(C(N)=O)c1 [PCM-0216109]	2.3	–
O=c1[nH]c2ccccc2n1CCN1CCN(c2cccc(C(F)(F)F)c2)CC1 [PCM-0214925]	-34.2	–
CCS(=O)(=O)Nc1ccc2[nH]c(O)c(C(=Nc3ccc(CN4CCCCC4)cc3)c3ccccc3)c2c1 [PCM-0095089]	82.1	–
FC(F)(F)Oc1ccc2nc(-c3ccc(OCCOCCOc4ccc(-c5nc6ccc(OC(F)(F)F)cc6[nH]5)nc4)cn3)[nH]c2c1 [PCM-0215500]	32.4	–
O=C(O)[C@@]1(CCCCCCOc2ccc(Cl)cc2)CO1 [PCM-0215742]	-1.5	–
CC(C)C[C@H](CC(=O)NO)C(=O)N[C@@H](Cc1ccc2ccccc2c1)C(=O)N[C@@H](C)C(=O)NCCN [PCM-0215328]	18.6	–
COc1cc(C=O)ccc1O [PCM-0094868]	21.8	–
CNC(=O)c1c(F)cccc1Nc1nc(Nc2cc3c(cc2OC)CCN3C(=O)CN(C)C)nc2[nH]ccc12 [PCM-0095412]	13.8	–
COc1ccc(COc2ccc(CC#N)cc2)cc1 [PCM-0215565]	-9.3	–
CS(=O)(=O)c1ccc([C@@H](O)[C@@H](CO)NC(=O)C(Cl)Cl)cc1 [PCM-0085804]	-8.6	–
CCn1cc(NC(=S)Nc2cc(Cl)ccc2OC)c(C(N)=O)n1 [PCM-0215323]	0	–
Nc1ccccc1NC(=O)c1ccc(CNc2nccc(-c3cccnc3)n2)cc1 [PCM-0094926]	2.8	–
COC(=O)/C=C/c1ccc(O)cc1 [PCM-0214996]	0	–
N#C/C(=C(\O)c1ccc(Cl)cc1Cl)c1nc2ccccc2c(=O)[nH]1 [PCM-0215733]	-6.9	–
N#Cc1cc(-c2n[nH]c(-c3ccncc3)n2)ccn1 [PCM-0214916]	-18.7	–
CO[C@H]1/C=C/O[C@@]2(C)Oc3c(C)c(O)c4c(O)c(c(/C=N/N5CCN(C6CCCC6)CC5)c(O)c4c3C2=O)NC(=O)/C(C)=C\C=C\[C@H](C)[C@H](O)[C@@H](C)[C@@H](O)[C@@H](C)[C@H](OC(C)=O)[C@@H]1C [PCM-0086116]	43.6	–

Structure (SMILES)	inhibition at 10 µM [1] [%]	inhibition at 10 µM (read-out: BTK inhibition (%)) [%]
CC(=O)OCC(CCn1cnc2cnc(N)nc21)COC(C)=O [PCM-0065613]	-20.2	–
CCOC(=O)CC(=O)N1CCSC1COc1ccccc1OC (stereo not shown) [PCM-0090669]	-8.6	–
C[C@@]12C[C@@]3(O)O[C@@H](O1)[C@]1(COC(=O)c4ccccc4)[C@H]3C[C@@]12O[C@@H]1O[C@H](COC(=O)c2ccccc2)[C@@H](O)[C@H](O)[C@H]1O [PCM-0216426]	-18.5	–
O=C(Nc1ccc([N+](=O)[O-])cc1O)Nc1ccccc1Br [PCM-0215392]	73.1	–
CCN1CCN(Cc2ccc(C(=O)Nc3ccc(C)c(Oc4ccc5c(c4)CC(=O)N5)c3)cc2C(F)(F)F)CC1 [PCM-0213332]	20.7	–
CCOc1ccccc1-n1c(C(C)N2CCN(C(=O)COc3ccc(Cl)cc3)CC2)nc2ccccc2c1=O (stereo not shown) [PCM-0095811]	15.4	–
C[C@]12CC[C@H]3[C@@H](CCC4=CC(=O)C=C[C@@]43C)[C@@H]1CC[C@@H]2O [PCM-0216069]	–	-13.1
C[C@H]1C[C@H]2[C@@H]3CCC4=CC(=O)C=C[C@]4(C)[C@@]3(F)[C@@H](O)C[C@]2(C)[C@@]1(O)C(=O)CO [PCM-0214629]	-6.2	–
CC(C)OC(=O)C(C)(C)Oc1ccc(C(=O)c2ccc(Cl)cc2)cc1 [PCM-0065053]	8.6	–
Nc1nc(NCCNc2ncc(-n3ccnc3)c(-c3ccc(Cl)cc3Cl)n2)ccc1[N+](=O)[O-] [PCM-0095481]	20.7	–
CCC(C)(C)C(=O)O[C@H]1C[C@@H](C)C=C2C=C[C@H](C)[C@H](CC[C@@H]3C[C@@H](O)CC(=O)O3)[C@H]21 [PCM-0214653]	-13.1	–
C[N+](C)(C)CCOP(=O)([O-])OP(=O)(O)OC[C@H]1O[C@@H](n2ccc(N)nc2=O)[C@H](O)[C@@H]1O [PCM-0215877]	0.9	–
Cc1cc(Nc2ccc(NC(=O)c3ccc(Nc4ccnc5ccccc45)cc3)cc2)nc(N)n1 [PCM-0215241]	17	–
CCCNC(=O)Nc1ccc(Oc2ncnc3cc(OC)c(OC)cc23)cc1Cl [PCM-0095113]	-11	–
Cc1ccc(NC(=O)c2cccc(C(C)(C)C#N)c2)cc1Nc1ccc2ncn(C)c(=O)c2c1 [PCM-0095483]	44.1	–
CC(C)(C)c1cnc(CSc2cnc(NC(=O)C3CCNCC3)s2)o1 [PCM-0094965]	-6.2	–
C[C@@H]1[C@H](O)[C@@H](C)/C=C/C=C/C=C/C=C/C=C/C=C/C=C/[C@H](O[C@@H]2O[C@H](C)[C@@H](O)[C@H](N)[C@@H]2O)C[C@@H]2O[C@](O)(C[C@@H](O)C[C@@H](O)[C@H](O)CC[C@@H](O)C[C@@H](O)CC(=O)O[C@H]1C)C[C@H](O)[C@H]2C(=O)O [PCM-0214634]	-3.1	–
CCCCCCCCCC(=O)N[C@@H](Cc1c[nH]c2ccccc12)C(=O)N[C@H](CC(N)=O)C(=O)N[C@@H](CC(=O)O)C(=O)N[C@@H]1C(=O)NCC(=O)N[C@@H](CCCN)C(=O)N[C@@H](CC(=O)O)C(=O)N[C@H](C)C(=O)N[C@@H](CC(=O)O)C(=O)NCC(=O)N[C@H](CO)C(=O)N[C@@H]([C@H](C)CC(=O)O)C(=O)N[C@@H](CC(=O)c2ccccc2N)C(=O)O[C@@H]1C [PCM-0095008]	-1.6	–
C[C@H](CCC(=O)NCCS(=O)(=O)O)[C@H]1CC[C@H]2[C@@H]3[C@H](O)C[C@@H]4C[C@H](O)CC[C@]4(C)[C@H]3CC[C@]12C [PCM-0215035]	-0.8	–
Oc1ccc(OC2CCCCO2)cc1 (stereo not shown) [PCM-0095551]	11.7	–
CO[C@@H](C(=O)N1Cc2[nH]nc(NC(=O)c3ccc(N4CCN(C)CC4)cc3)c2C1)c1ccccc1 [PCM-0094888]	85.5	–
